Results taken from patent publication US10130619B2, “Amido thiadiazole derivatives as NADPH oxidase inhibitors” (GENKYOTEX SUISSE SA, priority 2014, dated 2018).

Each compound was assayed against hNOX1 (Homo sapiens (Human), UniProt Q9Y5S8) (assay: ROS production measurement on hNOX1 membranes (Amplex Red fluorescence assay, assay 1)). Conditions: assay 1: membranes from CHO cells overexpressing hNox1, Amplex Red/HRP fluorescence, NADPH 30 μM; non linear regression (GraphPad Prism); read-out: Nox1 inhibitory constant Ki.
Format: biochemical
Description: Reactive oxygen species (ROS) production generated by hNOX1 enzyme was measured by fluorescence in both cellular and membrane-based assays using the Amplex® Red reagent. In the presence of horseradish peroxidase (HRP), the Amplex® Red reagent (10-acetyl-3,7-dihydroxyphenoxazine, AR), which is a colorless and nonfluorescent derivative of dihydroresorufin, reacts with H2O2 with a 1:1 stoichiometry to produce highly fluorescent resorufin at an excitation and emission wavelengths of 544 nm and 590 nm, respectively.
After resuspension in sonication buffer (11% sucrose, 120 mM NaCl, 1 mM EGTA in PBS, pH 7.4), cells were broken by sonication and centrifuged (200 g, 10 min). The supernatant was layered onto a 17/40% (w/v) discontinuous sucrose gradient and centrifuged (150,000 g for 30 min). Membrane fractions were collected from the 17/40% interface, aliquoted in 10 μl samples and were stored at −80° C. Protein concentration was determined with Bradford reagent. Flavin Adenine Dinucleotide (FAD) (catalog # F6625-500MG), MgCl2 (catalog # M8266-100G), Phosphatidic Acid (PA) (catalog # P3591-50MG) were purchased from Sigma-Aldrich. […] NADPH (catalog #A1395, 0500) was purchased from Applichem. Amplex red (AR) (catalog # A22177) was purchased from Invitrogen. […] FLUOstar OPTIMA microplate reader was supplied by BMG Labtech (Germany). Zephyr® Compact Liquid Handling Workstation was supplied by PerkinElmer (Germany).
Assay 1: ROS Production Measurement on hNOX1 Membranes
All solutions were placed on ice and protected from light.
The NADPH was dissolved in water at a concentration of 12 mM and was transferred in a metal transfer plate kept at 4° C. The NADPH was added to the assay plate to initiate the reaction just before the measurement.
Serial dilution (1:3, 10 serial dilution) of the compounds was performed in 100% DMSO in 96 well polypropylene plate—Row B-H […], Row A, Column 1-10 contained reference compound. Starting concentration was 10^−2 M (10 mM). Final concentration in assay was 10^−4 M (100 μM). Compounds were diluted twice in PBS buffer by transferring 30 μl/well of PBS into 30 μl/well compounds sample in DMSO using Zephyr® Compact Liquid Handling Workstation. Control wells-columns 1 and 12-contained 60 μl DMSO in 50% PBS pH7.
Reaction mixture is dispensed using Zephyr® Compact Liquid Handling Workstation. 90 μl of mix with membrane were dispensed into 96 well black plates—Column 2-11, Column 1 Row A-D, Column 12 Row E-H. 90 μl of control mix were dispensed into assay plate—Column 1 Row E-H, Column 12 Row A-D, which are wells for measuring background signal. 2 μl of compounds were dispensed into each well of assay plate using Zephyr® Compact Liquid Handling Workstation. The reaction mixture with compounds was incubated in assay plates for 20 min at 37° C. in a Titramax microplate incubator with gentle agitation. 10 μl of NADPH is dispensed to the assay plate. Fluorescence reading was recorded with the FLUOstar OPTIMA microplate reader for 10 min at 37° C. (8 cycles, 1 cycle duration 55 sec).

hNOX1, sequence (Q9Y5S8 whole entry): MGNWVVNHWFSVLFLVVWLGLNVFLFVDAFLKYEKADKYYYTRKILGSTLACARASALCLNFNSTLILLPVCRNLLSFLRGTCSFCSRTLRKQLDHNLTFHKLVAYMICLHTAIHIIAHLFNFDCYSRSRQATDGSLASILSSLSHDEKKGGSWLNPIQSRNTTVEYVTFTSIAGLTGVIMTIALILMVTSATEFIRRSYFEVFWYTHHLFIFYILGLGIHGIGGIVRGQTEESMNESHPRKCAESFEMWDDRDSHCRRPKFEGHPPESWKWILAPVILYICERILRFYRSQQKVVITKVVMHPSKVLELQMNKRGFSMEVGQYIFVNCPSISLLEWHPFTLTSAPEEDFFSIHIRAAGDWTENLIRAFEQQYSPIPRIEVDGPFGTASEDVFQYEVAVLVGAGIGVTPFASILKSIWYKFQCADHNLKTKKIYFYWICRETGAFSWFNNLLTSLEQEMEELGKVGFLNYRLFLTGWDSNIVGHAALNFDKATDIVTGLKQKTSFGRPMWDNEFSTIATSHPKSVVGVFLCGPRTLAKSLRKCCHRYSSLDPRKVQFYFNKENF
hNOX1, sequence (P13498 whole entry partner): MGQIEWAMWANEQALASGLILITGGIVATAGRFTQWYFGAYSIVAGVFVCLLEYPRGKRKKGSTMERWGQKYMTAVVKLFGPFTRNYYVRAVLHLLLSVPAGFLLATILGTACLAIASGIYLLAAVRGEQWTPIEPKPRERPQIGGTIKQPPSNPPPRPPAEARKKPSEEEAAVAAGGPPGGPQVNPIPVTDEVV

Structure (SMILES)	Ki [nM]
CCC(Oc1ccc(C(=O)Nc2nnc(-c3ccncc3)s2)cn1)c1ccccc1 (centres unmarked) [(134)]	71
COc1cc(C(=O)Nc2nnc(-c3ccncc3)s2)ccc1OC1COc2ccccc21 (centres unmarked) [(152)]	38
COc1cc(C(=O)Nc2nnc(-c3ccncc3)s2)ccc1OC(c1ccccc1)C1CC1 (centres unmarked) [(154)]	33
COc1cc(C(=O)Nc2nnc(-c3ccncn3)s2)ccc1O[C@@H](C)c1ccccc1 [(157)]	110
COc1cc(C(=O)Nc2nnc(-c3ccncc3)s2)ccc1OC1Cc2ccccc2C1 [(158)]	22
COc1cc(C(=O)Nc2nnc(-c3ccncc3)s2)ccc1OCCc1ccccc1 [(161)]	79
O=C(Nc1nnc(-c2ccncc2)s1)c1ccc(OCc2ccccc2)cc1F [(168)]	100
CN(C)C(=O)[C@H](Cc1ccccc1)Oc1ccc(C(=O)Nc2nnc(-c3ccncc3)s2)cn1 [(174)]	96
C[C@H](COc1ccc(C(=O)Nc2nnc(-c3ccncc3)s2)cn1)c1ccccc1 [(178)]	85
COc1ccc(CCCOc2ccc(C(=O)Nc3nnc(-c4ccncc4)s3)cn2)cc1 [(180)]	32
Cc1cc(C(=O)Nc2nnc(-c3ccncc3)s2)cnc1O[C@@H](CN1CCOCC1)c1ccccc1 [(182)]	37
COCC(Oc1ccc(C(=O)Nc2nnc(-c3ccncc3)s2)cc1OC)c1ccccc1 (centres unmarked) [(183)]	55
COc1cc(C(=O)Nc2nnc(-c3ccncc3)s2)ccc1O[C@H](CN1CCOCC1)c1ccccc1 [(185)]	89
COc1cc(C(=O)Nc2nnc(-c3ccncc3)s2)ccc1O[C@@H](CO)c1ccc(F)cc1 [(197)]	24
COc1cc(C(=O)Nc2nnc(-c3ccncc3)s2)ccc1O[C@@H](CN(C)C)c1ccc(F)cc1 [(198)]	25
COc1cc(C(=O)Nc2nnc(-c3ccncc3)s2)ccc1O[C@H](CO)c1ccc(F)cc1 [(199)]	47
COc1cc(C(=O)Nc2nnc(-c3ccncc3)s2)ccc1O[C@@H](CO)c1ccccc1 [Example 7, (R)-4-(2-hydroxy-1-phenylethoxy)-3-methoxy-N-(5-(pyridin-4-yl)-1,3,4-thiadiazol-2-yl)benzamide]	22
COc1cc(C(=O)Nc2nnc(-c3ccncc3)s2)ccc1O[C@@H](CCN1CCCC1)c1ccccc1 [Example 9, (S)-3-methoxy-4-(1-phenyl-3-(pyrrolidin-1-yl)propoxy)-N-(5-(pyridin-4-yl)-1,3,4-thiadiazol-2-yl)benzamide]	29
COc1cc(C(=O)Nc2nnc(-c3ccncc3)s2)ccc1O[C@@H](CN1CCCC1)c1ccccc1 [Example 10, (R)-3-methoxy-4-(1-phenyl-2-(pyrrolidin-1-yl)ethoxy)-N-(5-(pyridin-4-yl)-1,3,4-thiadiazol-2-yl)benzamide]	49
COc1cc(C(=O)Nc2nnc(-c3ccncc3)s2)ccc1OCc1nccn1C [Example 19, 3-methoxy-4-((1-methyl-1H-imidazol-2-yl)methoxy)-N-(5-(pyridin-4-yl)-1,3,4-thiadiazol-2-yl)benzamide]	220
COCCNc1cc(C(=O)Nc2nnc(-c3ccncc3)s2)cnc1O[C@@H](C)c1ccccc1 [Example 22, (S)-5-((2-methoxyethyl)amino)-6-(1-phenylethoxy)-N-(5-(pyridin-4-yl)-1,3,4-thiadiazol-2-yl)nicotinamide]	18
CN1CCN(c2cc(C(=O)Nc3nnc(-c4ccncc4)s3)cnc2OCc2ccccc2)CC1 [Example 24, 6-(benzyloxy)-5-(4-methylpiperazin-1-yl)-N-(5-(pyridin-4-yl)-1,3,4-thiadiazol-2-yl)nicotinamide]	62
CC(C)(O)[C@H](Oc1ncc(C(=O)Nc2nnc(-c3ccncc3)s2)cc1Cl)c1ccccc1 [Example 29, (R)-5-chloro-6-(2-hydroxy-2-methyl-1-phenylpropoxy)-N-(5-(pyridin-4-yl)-1,3,4-thiadiazol-2-yl)nicotinamide]	64
C[C@H](Oc1ncc(C(=O)Nc2nnc(-c3ccncc3)s2)cc1OCC1CCOCC1)c1ccccc1 [Example 37, (S)-6-(1-phenylethoxy)-N-(5-(pyridin-4-yl)-1,3,4-thiadiazol-2-yl)-5-((tetrahydro-2H-pyran-4-yl)methoxy)nicotinamide]	38

The remaining lines, values ahead:

Ki [nM]	Structure (SMILES)
35	COc1cc(C(=O)Nc2nnc(-c3ccncc3)s2)ccc1Cn1ccc2ccccc21 [(121)]
47	O=C(Nc1nnc(-c2ccncc2)s1)c1ccc(OC2CCc3ccccc32)nc1 (centres unmarked) [(136)]
78	C[C@H](Nc1ccc(C(=O)Nc2nnc(-c3ccncc3)s2)cn1)c1ccccc1 [(149)]
15	COc1cc(C(=O)Nc2nnc(-c3ccncc3)s2)ccc1OC1CCc2ncccc21 (centres unmarked) [(151)]
95	COc1cc(C(=O)Nc2nnc(-c3ccncc3)s2)ccc1OCc1ccn(C)n1 [(162)]
55	O=C(Nc1nnc(-c2ccncc2)s1)c1ccc(O[C@@H](CN2CCC(F)(F)C2)c2ccccc2)nc1 [(187)]
110	COc1cc(C(=O)Nc2nnc(-c3ccncc3)s2)ccc1O[C@H](CN(C)C)c1ccc(F)cc1 [(200)]
18	CC(Oc1ccc(C(=O)Nc2nnc(-c3ccncc3)s2)cc1OCC1CCNCC1)c1ccccc1 (centres unmarked) [Example 1, 4-(1-phenylethoxy)-3-(piperidin-4-ylmethoxy)-N-(5-(pyridin-4-yl)-1,3,4-thiadiazol-2-yl)benzamide]
45	CC(Cc1ccccc1)Oc1ccc(C(=O)Nc2nnc(-c3ccncc3)s2)cn1 (centres unmarked) [Example 34, 6-((1-phenylpropan-2-yl)oxy)-N-(5-(pyridin-4-yl)-1,3,4-thiadiazol-2-yl)nicotinamide]
100	O=C(Nc1nnc(-c2ccncc2)s1)c1ccc(O[C@@H](CN2CCOCC2)c2ccccc2)nc1 [Example 39, (R)-6-(2-morpholino-1-phenylethoxy)-N-(5-(pyridin-4-yl)-1,3,4-thiadiazol-2-yl)nicotinamide]
190	COc1cc(C(=O)Nc2nnc(-c3ccncc3)s2)ccc1CN1Cc2ccccc2C1 [Example 40, 4-(isoindolin-2-ylmethyl)-3-methoxy-N-(5-(pyridin-4-yl)-1,3,4-thiadiazol-2-yl)benzamide]
